Measurements published in PMC1919488 (Nucleic Acids Research, 2007).
Numbering of substitutions follows the chain as printed. Where two headings read alike, the source gives them in different places.

Experiments:
Rad51 [1] = target: T1, Rad51 (Saccharomyces cerevisiae, UniProt P25454, K191R); format: binding
T1 sequence (P25454 1-400 K191R): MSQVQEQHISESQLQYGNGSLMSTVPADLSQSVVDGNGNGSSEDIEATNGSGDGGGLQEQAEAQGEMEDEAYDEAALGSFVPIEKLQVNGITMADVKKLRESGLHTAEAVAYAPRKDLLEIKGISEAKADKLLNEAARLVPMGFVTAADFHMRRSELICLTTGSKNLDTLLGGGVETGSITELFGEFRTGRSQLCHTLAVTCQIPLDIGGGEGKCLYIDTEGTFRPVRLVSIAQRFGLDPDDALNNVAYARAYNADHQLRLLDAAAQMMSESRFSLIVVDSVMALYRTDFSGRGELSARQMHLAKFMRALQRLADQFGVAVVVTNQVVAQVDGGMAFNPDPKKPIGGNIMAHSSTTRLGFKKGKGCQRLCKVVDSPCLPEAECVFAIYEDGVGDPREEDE

Rad51 [2] = target: T2, Rad51 (Saccharomyces cerevisiae, UniProt P25454); format: binding
T2 sequence (P25454 1-400): T1 sequence (P25454 1-400 K191R) with R191K

Rad51 [3] = target: T3, Rad51 (Saccharomyces cerevisiae, UniProt P25454, K191A); format: binding
T3 sequence (P25454 1-400 K191A): T1 sequence (P25454 1-400 K191R) with R191A

Rad51 [4] = target: T3, Rad51; assay: biochemical
Rad51 [5] = target: T1, Rad51; assay: biochemical
Rad51 [6] = target: T2, Rad51; assay: biochemical

Compound	Kd (Rad51 [1]) [µM]	Kd (Rad51 [2]) [µM]	Kd (Rad51 [3]) [µM]	Kd (Rad51 [4]) [µM]	Kd (Rad51 [5]) [µM]	Kd (Rad51 [6]) [µM]
[N-]=[N+]=Nc1nc2c(N)ncnc2n1[C@@H]1O[C@H](COP(=O)(O)OP(=O)(O)OP(=O)(O)O)[C@@H](O)[C@H]1O [8-Azido-ATP]	26.9 ± 10.3	10.2 ± 5.1	73.7 ± 35.6			
Nc1ncnc2c1ncn2[C@@H]1O[C@H](COP(=O)(O)OP(=O)(O)OP(=O)(O)O)[C@@H](O)[C@H]1O [ATP]				34.2 ± 25.8	52.5 ± 18.2	8.8 ± 4.5
